The source made the active and inactive calls.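 The calls were made as follows: active = no phosphorylated c-Jun band on immunoblot of thapsigargin-stressed cells, like the unstressed control; inactive = a phosphorylated c-Jun band visible, like the stressed control.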

This assay relates to CSM14.1 cells, phospho-c-Jun Western blot, thapsigargin. Put plainly: phospho-c-Jun suppression under ER stress – CSM14.1 cells, Western blot, mechanism study for ER stress cell death inhibitors (AID 1360).
Regarding `COc1ccc(C2CC(=O)C3=C(C2)Nc2ccccc2NC3c2cccc(Oc3ccccc3)c2)cc1OC` (stereo unspecified), the result was active. The same measure for `CCOc1cc(C2Nc3ccccc3NC3=C2C(=O)CC(c2ccc(OC)cc2)C3)cc(Cl)c1O` (stereo unspecified): “active”; for `COc1ccc(C2CC(=O)C3=C(C2)Nc2ccccc2NC3c2cc(C)ccc2C)cc1` (stereo unspecified): “active”; for `COc1ccc(C2CC(=O)C3=C(C2)Nc2ccccc2NC3c2cccc(Br)c2)cc1OC` (stereo unspecified): “active”. The result for `COc1ccc(C2CC(=O)C3=C(C2)Nc2ccccc2NC3c2ccccc2C(F)(F)F)cc1OC` (stereo unspecified) reads “active”. For the compound `CCOc1cccc(C2Nc3ccccc3NC3=C2C(=O)CC(c2ccc(OC)cc2)C3)c1` (stereo unspecified), the outcome was active. The result for `CSc1ccc(C2Nc3ccccc3NC3=C2C(=O)CC(c2ccccc2)C3)cc1` (stereo unspecified) reads “active”; that for `CCCOc1ccc(C2Nc3ccccc3NC3=C2C(=O)CC(c2ccc(OC)c(OC)c2)C3)cc1` (stereo unspecified), “active”. The result for `CC1(C)CC(=O)C2=C(C1)Nc1ccccc1NC2c1ccc(-c2ccccc2)cc1` (stereo unspecified) reads “active”. The same measure for `COc1ccc(C2CC(=O)C3=C(C2)Nc2ccccc2NC3c2cccc(C(F)(F)F)c2)cc1OC` (stereo unspecified): “active”; for `O=C1CC(c2ccccc2)CC2=C1C(c1c(F)cccc1Cl)Nc1ccccc1N2` (stereo unspecified): “active”.
